Measurements taken from patent US5407925A (priority 1991, dated 1995).

How the values were obtained:
[1] = test system: rhabdomyosarcoma cell line; details: cited from earlier work
[2] = test system: MOLT-4; details: MOLT-4 (a T-cell leukemia); cited from earlier work
[3] = test system: murine leukemia cells; details: Hilton 1984; cited from earlier work
[4] = test system: Burkitt's lymphoma cell lines; details: De Fabritiis et al. 1985; cited from earlier work
[5] = test system: cells in vitro; details: compared with 4-hydrocyclophosphamide, Redwood et al. 1982; cited from earlier work
[6] = clinical evidence of toxicity of intrathecal treatment in tumor-bearing nude rats; details: either dose (final concentration 100 uM or 250 uM)
[7] = test system: TE-671; details: medulloblastoma cell line TE-671; cited from earlier work
[8] = test system: human breast cancer cells; details: Kubota et al. 1983; cited from earlier work
[9] = direct intrathecal administration, 100 uM in the cerebrospinal fluid; cited from earlier work
[10] = test system: TE-671; assay: intrathecal treatment of subarachnoid TE-671 human medulloblastoma xenografts in nude rats; format: in vivo, Female athymic nude rats; human medulloblastoma cell line; details: for loss of antigravity strength / increase in median survival: intrathecal
[11] = test system: McF-7; details: breast cancer cell line McF-7; cited from earlier work
[12] = final concentration 250 uM, p less than 0.01

O=P1(N(CCCl)CCCl)NC(OO)CCO1 (stereo not shown) [4-HC, 4-hydroperoxycyclophosphamide]
concentration at which active [1]: 8 µM
concentration at which active [2]: 2.5 µM
activity in vitro [3]: active in vitro
activity in vitro [4]: active in vitro
toxicity on a molar basis to cells in vitro versus 4-hydrocyclophosphamide [5]: equal toxicity on a molar basis
clinical evidence of toxicity [6]: no clinical evidence of toxicity
concentration at which active [7]: 12.8 µM
activity in vitro [8]: active in vitro
toxicity [9]: without producing toxicity
time by which loss of stepping and placing reflexes and ramp climbing ability preceded death ([10]; both treatment studies (100 uM and 250 uM)): approximately 3 days
loss of antigravity strength ([10]; final CSF concentration 100 uM, day 8 after tumor inoculation, p=0.036): delay in the loss of antigravity strength
increase in median survival ([10]; final CSF concentration 100 uM, day 8 after tumor inoculation, p=0.04): 20%
increase in median survival [10, 12]: 36%
loss of antigravity strength [10, 12]: further delay in the loss of antigravity strength
histopathology after death: subarachnoid tumor infiltrate ([10]; sections from all animals, 4-HC-treated and saline-treated control groups, base of the brain to the cauda equina): diffuse subarachnoid infiltrate of tumor cells
concentration at which active [11]: 9.5 µM
